{"source": "patent US12364733B1", "about": "“Method for treating septic shock” (Inotrem, priority 2018, dated 2025)", "assay_type_in_all_cases": "in vivo, human", "key": {"[1]": {"test_system": "anti-nangibotide antibodies", "assay": "Immunogenicity: anti-nangibotide antibodies in serum by indirect ELISA", "details": "baseline, day 8 and day 28", "description": "Anti-nangibotide antibodies in serum were evaluated at baseline, day 8 and day 28, by an indirect ELISA method validated according to methods described by Shankar et al. (J Pharm Biomed Anal. 2008 Dec. 15; 48(5):1267-81) and EMA guidance on immunogenicity assessment of biotechnology-derived therapeutic proteins (EMEA/CHMP/BMWP/14327/2006 issued on April 2008). Screening samples determined as positive were further assessed using the confirmatory assay where the cut point was established to have 0.1% of false positive samples (Shankar et al., J Pharm Biomed Anal. 2008 Dec. 15; 48(5):1267-81). […] The sensitivity of the assay was established to be 0.3125 pg/mL."}, "[2]": {"test_system": "circulating levels of endothelial injury markers, inflammatory markers and sTREM-1", "assay": "Phase IIa clinical trial with nangibotide: pharmacodynamic markers", "description": "The quantitative determination of sTREM-1 was carried out using the method described in Example 2.\n(§1) Adverse events (AEs) were coded using the MedDRA dictionary version 18.1. Treatment-emergent adverse events (TEAEs) were summarized and listed. Analysis was performed in 49 septic shock patients. The demographic and baseline characteristics were summarized in a descriptive fashion within each population: categorical variables were summarized by contingency tables (frequencies and percentages). sTREM-1 levels at day 1 were also described (mean, standard deviation, standard error, median, quartiles and range, minimum and maximum values). Mortality rates were reported by frequency and percentage. For continuous endpoints, i.e., the sequential organ failure assessment (SOFA), missing data were imputed using LOCF (Last Observation Carry-Forward). For time-to-event analyses, i.e., duration of invasive mechanical ventilation (IMV), duration of continuous renal replacement therapy (CRRT), survival, censored data techniques were utilized. In addition, a sensitivity analysis of time to event data (except survival) was performed using censoring at maximum limit for the corresponding observation period (i.e., either day 28 or day 90). […] The following comparisons were made: each nangibotide dose arm to placebo, all nangibotide doses combined versus placebo, and dose-response using an ordinal trend test. Exploratory composite endpoint: incidence (number and proportion) of patients alive at day 28 and free of vasopressor, free of IMV and free of CRRT were summarized by treatment and compared between treatments with a Fisher's exact test. For pharmacodynamic markers, log transformed data were represented as percentage change from baseline at day 5 or End of Infusion (EOI) if end of infusion was stopped before day 5. […] “All nangibotide” refers to analyses obtained by pooling data from 0.3, 1 and 3 mg/kg/h nangibotide-treated groups."}, "septic shock patients": {"test_system": "septic shock patients", "assay": "Phase IIa clinical trial with nangibotide: days alive and free from vasopressor, IMV or CRRT", "details": "for difference in the number of CRRT (continuous renal replacement therapy) free days alive vs. placebo / difference in the number of IMV (invasive mechanical ventilation) free days alive vs. placebo / difference in the number of vasopressor free days alive vs. placebo: day 0 to day 28", "description": "This was a randomized, double-blind, two-stage, placebo-controlled study. As described in FIG. 7, the study was composed of 2 stages with a similar treatment regimen, in which 0.3, 1.0 or 3.0 mg/kg/h of nangibotide (corresponding to peptide LR12, having an amino acid sequence as set forth in SEQ ID NO: 9, also known as motrem) was tested versus placebo. All patients with a diagnosis of septic shock were considered for study participation. All potential study patients underwent standard care management procedures. Patients with evidence of septic shock according to the Sepsis-3 definition (Singer et al, JAMA 2016) were considered for inclusion (i.e., patients suffering from sepsis and having (i) persisting hypotension requiring vasopressors to maintain their mean arterial pressure ≥65 mm Hg and (ii) a serum lactate level >2 mmol/L (18 mg/dL) despite adequate volume resuscitation).\nAfter screening for eligibility, patients were randomized to one of the treatment arms. Then, they received either a 5 mg/kg loading dose of nangibotide over 15 minutes followed by a continuous intravenous (i.v.) infusion of nangibotide or a matching placebo on top of standard of care. Treatment with study drug was initiated as early as possible, but no later than 24 hours after the onset of septic shock, defined by the start of vasopressor therapy. Patients were treated until 12 (±2) hours after the resolution of their septic shock (defined as vasopressor withdrawal) with a maximum treatment duration of 5 days (120 hours).\nas §1"}, "[3]": {"assay": "Blood nangibotide concentrations by LC-MS/MS (pharmacokinetics, phase IIa trial)", "description": "Blood nangibotide concentrations were determined by a validated LC-MS/MS method in accordance with European Medicines Agency (EMA) guidelines on bioanalytical method validation EMEA/CHMP/EWP/192217/2009, version EMA/275542/2014. The peptide was stabilized in the blood samples by treatment with a 10% trichloroacetic acid solution ([…], 4° C.) and centrifugation (3500 g, 10 min, 4° C.) to collect and freeze the supernatant before analysis. The lower limit of quantification (LLOQ) and upper limit of quantification (ULOQ) were 5 ng/mL and 1000 ng/mL respectively. Standard curve was linear over the range 5 ng/mL to 1000 ng/mL with a correlation coefficient greater than 0.995. Within-run and between-run precision and accuracy within +/−20% LLOQ and +/−15% (other levels up to ULOQ) were achieved during a 3-run validation for quality controls (QCs) for nangibotide."}, "[4]": {"details": "baseline high sTREM-1 subgroup, 0.3 mg/kg/h"}, "[5]": {"details": "baseline high sTREM-1 subgroup, 3 mg/kg/h"}, "[6]": {"details": "baseline high sTREM-1 subgroup, all nangibotide"}, "[7]": {"details": "baseline low sTREM-1 subgroup, 0.3 mg/kg/h"}, "[8]": {"details": "baseline low sTREM-1 subgroup, 3 mg/kg/h"}, "[9]": {"details": "baseline low sTREM-1 subgroup, all nangibotide"}, "[10]": {"details": "whole population, all nangibotide"}}, "data": [{"substance": "nangibotide (LQEEDAGEYGCM; TLT-1 peptide)", "values": [{"measurement": "anti-nangibotide antibodies in serum", "setting": "[1]", "value": "No anti-nangibotide antibodies were found"}, {"measurement": "Ang-2 level, change from baseline", "setting": "[2]; G2 subgroup (baseline sTREM-1 above the median 433 pg/mL) vs whole population and G1", "value": "trend toward a more pronounced decrease"}, {"measurement": "IL-6 level, change from baseline", "setting": "[2]; G2 subgroup vs whole population and G1", "value": "the same trend was observed"}, {"measurement": "circulating levels of endothelial injury markers (Ang-2, VCAM-1, VGEFR-1 and E-selectin), inflammatory markers (IL-8, IL-10, MCP-1, TNF-α and IL-10) and sTREM-1", "setting": "[2]; during the treatment, nangibotide-treated patients", "value": "trend towards a decrease"}, {"measurement": "sTREM-1 kinetics over time", "setting": "[2]; subgroup of patients with high baseline sTREM-1 values", "value": "trend towards a decrease in sTREM-1"}, {"measurement": "Ang-2 level, treatment effect", "setting": "[2]; whole population", "value": "no apparent treatment effect"}, {"measurement": "sTREM-1 kinetics over time", "setting": "[2]; whole population, day 5/EOI from baseline", "value": "no apparent changes over time"}, {"measurement": "proportion of patients alive and free of any medical support at day 28", "setting": "septic shock patients; all nangibotide group, patients with high circulating sTREM-1 at baseline (above 433 pg/mL), placebo 40%", "value": 70, "unit": "%"}, {"measurement": "difference in the number of CRRT (continuous renal replacement therapy) free days alive vs. placebo", "setting": "septic shock patients; [4]", "value": 8.67, "unit": "days"}, {"measurement": "difference in the number of IMV (invasive mechanical ventilation) free days alive vs. placebo", "setting": "septic shock patients; [4]", "value": 2.63, "unit": "days"}, {"measurement": "difference in the number of vasopressor free days alive vs. placebo", "setting": "septic shock patients; [4]", "value": 4.07, "unit": "days"}, {"measurement": "difference in the number of CRRT (continuous renal replacement therapy) free days alive vs. placebo", "setting": "septic shock patients; [5]", "value": 7.37, "unit": "days"}, {"measurement": "difference in the number of IMV (invasive mechanical ventilation) free days alive vs. placebo", "setting": "septic shock patients; [5]", "value": 4.30, "unit": "days"}, {"measurement": "difference in the number of vasopressor free days alive vs. placebo", "setting": "septic shock patients; [5]", "value": -0.48, "unit": "days"}, {"measurement": "difference in the number of CRRT (continuous renal replacement therapy) free days alive vs. placebo", "setting": "septic shock patients; [6]", "value": 7.85, "unit": "days"}, {"measurement": "difference in the number of IMV (invasive mechanical ventilation) free days alive vs. placebo", "setting": "septic shock patients; [6]", "value": 5.63, "unit": "days"}, {"measurement": "difference in the number of vasopressor free days alive vs. placebo", "setting": "septic shock patients; [6]", "value": 2.94, "unit": "days"}, {"measurement": "difference in the number of CRRT (continuous renal replacement therapy) free days alive vs. placebo", "setting": "septic shock patients; [7]", "value": 1.43, "unit": "days"}, {"measurement": "difference in the number of IMV (invasive mechanical ventilation) free days alive vs. placebo", "setting": "septic shock patients; [7]", "value": 3, "unit": "days"}, {"measurement": "difference in the number of vasopressor free days alive vs. placebo", "setting": "septic shock patients; [7]", "value": 2.29, "unit": "days"}, {"measurement": "difference in the number of CRRT (continuous renal replacement therapy) free days alive vs. placebo", "setting": "septic shock patients; [8]", "value": 0.89, "unit": "days"}, {"measurement": "difference in the number of IMV (invasive mechanical ventilation) free days alive vs. placebo", "setting": "septic shock patients; [8]", "value": -6.32, "unit": "days"}, {"measurement": "difference in the number of vasopressor free days alive vs. placebo", "setting": "septic shock patients; [8]", "value": 0.07, "unit": "days"}, {"measurement": "difference in the number of CRRT (continuous renal replacement therapy) free days alive vs. placebo", "setting": "septic shock patients; [9]", "value": 0.77, "unit": "days"}, {"measurement": "difference in the number of IMV (invasive mechanical ventilation) free days alive vs. placebo", "setting": "septic shock patients; [9]", "value": -1.30, "unit": "days"}, {"measurement": "difference in the number of vasopressor free days alive vs. placebo", "setting": "septic shock patients; [9]", "value": 0.64, "unit": "days"}, {"measurement": "vasopressor use, invasive mechanical ventilation (IMV) use and renal replacement therapy (RRT) use vs. placebo", "setting": "septic shock patients; no statistically significant differences", "value": "consistent numerical trend in favor of nangibotide"}, {"measurement": "difference in the number of CRRT (continuous renal replacement therapy) free days alive vs. placebo", "setting": "septic shock patients; whole population, 0.3 mg/kg/h", "value": 4.10, "unit": "days"}, {"measurement": "difference in the number of IMV (invasive mechanical ventilation) free days alive vs. placebo", "setting": "septic shock patients; whole population, 0.3 mg/kg/h", "value": 2.32, "unit": "days"}, {"measurement": "difference in the number of CRRT (continuous renal replacement therapy) free days alive vs. placebo", "setting": "septic shock patients; whole population, 3 mg/kg/h", "value": 1.50, "unit": "days"}, {"measurement": "difference in the number of IMV (invasive mechanical ventilation) free days alive vs. placebo", "setting": "septic shock patients; whole population, 3 mg/kg/h", "value": -2.08, "unit": "days"}, {"measurement": "difference in the number of CRRT (continuous renal replacement therapy) free days alive vs. placebo", "setting": "septic shock patients; [10]", "value": 2.70, "unit": "days"}, {"measurement": "difference in the number of IMV (invasive mechanical ventilation) free days alive vs. placebo", "setting": "septic shock patients; [10]", "value": 1.33, "unit": "days"}, {"measurement": "nangibotide blood concentration versus dose", "setting": "[3]; 0.3, 1.0, 3.0 mg/kg/h", "value": "proportional with the dose"}, {"measurement": "clearance after the end of infusion", "setting": "[3]; human, in vivo", "value": "quickly cleared"}, {"measurement": "pharmacokinetics / blood concentrations compared with healthy volunteers", "setting": "[3]; in vivo", "value": "within the same range previously observed in healthy volunteers"}, {"measurement": "pharmacokinetic behavior during intravenous infusion", "setting": "[3]; in vivo, iv", "value": "linear behavior"}]}]}
